These results are taken from ChEMBL document CHEMBL1145230, “Syntheses of 2,4,6-trisubstituted pyrimidine derivatives as a new class of antifilarial topoisomerase II inhibitors” (Bioorg Med Chem Lett, 2005).

Common to all, as to type: functional
Assay [1] relates to Setaria cervi. The assay can be described thus: Percent inhibition of filarial parasite Setaria cervi by compound at 5 ug/mL concentration.
In assay [2] the test system is Setaria cervi. Kind of assay: Percent inhibition of filarial parasite Setaria cervi by compound at 10 ug/mL concentration.
Assay [3] has as its system Setaria cervi. The assay can be described thus: Percent inhibition of filarial parasite Setaria cervi by compound at 20 ug/mL concentration.
The subject of assay [4] is Setaria cervi. Kind of assay: Percent inhibition of filarial parasite Setaria cervi by compound at 40 ug/mL concentration.
In assay [5] the test system is Setaria cervi. Kind of assay: Percent inhibition of filarial parasite Setaria cervi by compound at 10 ug/mL concentration; NI = no inhibition.
The subject of assay [6] is Setaria cervi. The assay can be described thus: Percent inhibition of filarial parasite Setaria cervi by compound at 5 ug/mL concentration; NI = no inhibition.

The source made the active and inactive calls. The calls are words filed in the database; no cut-off is given here.

For the molecule `Nc1nc(NCCCN2CCOCC2)cc(-c2cccs2)n1`, the inhibition (in general, the percentage by which the read-out fell short of the control) in assay [1] came out at 60%; in assay [2] it was 80%; in assay [3], 80%; in assay [4], 80%.

Take `CCN(CC)C(=O)N1CCN(C)CC1`: the inhibition in assay [3] worked out at 10%; in assay [4], 45%. The inhibition entry in assay [5] and in assay [6] was “inactive” each time.

As for `Nc1ccc(-c2nc(NCCCN3CCOCC3)cc(-c3cccs3)n2)cc1`, the inhibition in assay [1] was determined as 40%; in assay [2], 70%; in assay [3] it was 70%; in assay [4], 70%.

With `CN1CCN(c2cc(-c3cccs3)nc(N)n2)CC1`, the inhibition came out at 60% in assay [1], 80% in assay [2], 80% in assay [3] and 80% in assay [4].

Consider `Nc1nc(NCCN2CCOCC2)cc(-c2cccs2)n1`, for which the inhibition in assay [2], in assay [3] and in assay [4] was 80% in each case. Besides, the inhibition result in assay [6] was “inactive”.

As for `CO[C@@H]1[C@@H](OC(N)=O)[C@@H](O)[C@H](Oc2ccc3c(O)c(NC(=O)c4ccc(O)c(CC=C(C)C)c4)c(=O)oc3c2C)OC1(C)C`, the figures for the inhibition in assay [2], in assay [3] and in assay [4] were 10%, 20% and 80%, respectively. In addition, in assay [6], the inhibition entry is “inactive”.

With `CN1CCN(c2cc(-c3cccs3)nc(-c3ccc(N)cc3)n2)CC1`, the inhibition in assay [1] was determined as 25%; in assay [2] it was 80%; in assay [3], 80%; in assay [4] it was 80%.

In the case of `CCn1cc(C(=O)O)c(=O)c2ccc(C)nc21`, the inhibition in assay [2] amounted to 20%; in assay [3], 40%; in assay [4] it was 80%. For the same molecule, the inhibition result in assay [6] was “inactive”.

For `Nc1nc(NCCO)cc(-c2cccs2)n1`, the inhibition in assay [3] and in assay [4] was 60% each time. Besides, the inhibition result in assay [5] and in assay [6] was “inactive” throughout.

As to `CCCNc1cc(-c2cccs2)nc(N)n1`, the inhibition in assay [3] and in assay [4] was 60% each time. Also, the inhibition result in assay [5] and in assay [6] was “inactive” in each case.
